From ChEMBL document CHEMBL4477247, “Computer-aided discovery of anti-HIV agents” (Bioorg Med Chem, 2016)
In brackets after ≈: the same amount, converted by molar mass.

Tests used:
[1] = test system: Human immunodeficiency virus 1; assay: Antiviral activity against HIV1 3B harboring reverse transcriptase K103N/Y181C double mutant infected in human MT2 cells assessed as protection against viral infection by MTT method; type: functional, organism-based
[2] = test system: Human immunodeficiency virus 1; assay: Antiviral activity against HIV1 3B infected in human MT2 cells assessed as protection against viral infection by MTT method; type: functional, organism-based; details: Human immunodeficiency virus 1, 3B
[3] = test system: Human immunodeficiency virus 1; assay: Antiviral activity against HIV1 3B harboring reverse transcriptase Y181C mutant infected in human MT2 cells assessed as protection against viral infection by MTT method; type: functional, organism-based
[4] = Cytotoxicity against human MT2 cells assessed as growth inhibition by MTT method; type: cell-based
[5] = Aqueous solubility of compound in pH 6.5 solution by shake flask method; type: physicochemical; details: aqueous solution pH 6.5, pH 6.5
[6] = Human immunodeficiency virus 1, 3B, MT2, read-out: EC50

Row | SMILES | EC50 [2] | EC50 [3, 6] | CC50 [4] | other results
1 | Cc1cc(Oc2ccccc2OCCn2ccc(=O)[nH]c2=O)c2cc(C#N)[nH]c2c1 | 0.01 µM | – | – | EC50 [1, 6]: 0.8 µM; EC50 [3]: Not Active
2 | Cc1cc(/C=C/C#N)cc(Oc2cc(Nc3ncnc(C4CC4)n3)ccc2C)c1 | 0.0017 µM | 0.015 µM | – | –
3 | Cc1ccnc2c1NC(=O)c1cccnc1N2C1CC1 [NEVIRAPINE] | – | – | > 100 µM | EC50 [1]: Not Active; EC50 [3]: Not Active
4 | CC(C)=CCOc1cc(Nc2nccc3cc[nH]c23)ccc1Cl | 0.9 µM | – | 9.2 µM | –
5 | N#Cc1cc2c(Oc3ccccc3OCCn3ccc(=O)[nH]c3=O)cccn2c1 | 0.00038 µM | 0.31 µM | > 100 µM | EC50 [1, 6]: 0.011 µM
6 | N#Cc1cc2c(Oc3ccccc3OCCn3ccc(=O)[nH]c3=O)cc(Cl)cc2o1 | 0.019 µM | 1.9 µM | > 100 µM | EC50 [1, 6]: 0.26 µM
7 | CC(C)=CCOc1cc(Nc2ncnc3occc23)ccc1Cl | 0.005 µM | – | 17 µM | –
8 | COc1ccnc(Nc2ccc(Cl)c(Oc3ccccc3)c2)n1 | 2.5 µM | – | – | –
9 | CC(C)=CCOc1cc(Nc2nccn3cccc23)ccc1Cl | 0.019 µM | – | 20 µM | –
10 | N#Cc1ccc2c(Oc3ccc(F)cc3OCCn3ccc(=O)[nH]c3=O)cc(F)cc2c1 | – | – | – | solubility thermodynamic [5]: 82.9 µg/mL (≈ 190 µM)
11 | Cc1ccc(OCCn2ccc(=O)[nH]c2=O)c(Cc2ccccc2)c1 | 4.8 µM | – | – | –
12 | CSc1ccnc(Nc2ccc(C#N)c(Oc3cccc(/C=C/C#N)c3)c2)n1 | 0.048 µM | 0.25 µM | 1.2 µM | –
13 | Cc1cc(/C=C/C#N)cc(Oc2cc(Nc3ncnc(C4CC4)n3)ccc2Cl)c1 | – | 0.0049 µM | – | –
14 | N#Cc1ccc2c(Oc3ccccc3OCCn3ccc(=O)[nH]c3=O)cc(F)cc2c1 | – | – | – | solubility thermodynamic [5]: 9.1 µg/mL (≈ 21.8 µM)
15 | CC(C)=CCOc1cc(Nc2nccc3cccn23)ccc1Cl | 0.13 µM | – | 17 µM | –
